We go through six molecules from patent US20020006930A1, “Method for stimulating liver regeneration” (priority 2000, published 2002).

Data set [1] deals with proliferative factors (PF) in the plasma of PHX rats. Put plainly: Hepatocyte primary culture bioassay for proliferative factor (PF) production in plasma after 2/3 PHX. It counts as in vivo, rat. As to conditions: for reversal of L-NAME-induced blockade/inhibition: PHX rats given L-NAME plus L-arginine, in vivo. As for the experimental part:
The production of proliferative factors (PFs) was determined as previously described (21) . Briefly, PHX or PVL was performed as described above. Four hours after PHX or PVL, the diaphragm was cut and a blood sample drawn ([…] per rat) from the right ventricle of the heart using a 21 G 1.5-inch needle and a 10 ml sterile syringe. In a tissue culture hood, the blood was transferred to a sterile centrifuge tube, centrifuged at 2500 g for 20 minutes, and plasma stored at −20° C. The collagenase perfusion and hepatocyte isolation method was modified from Seglen (22), and has been previously described (21). Male Sprahue-Dawley rats (250 g) were anesthetized using sodium pentobarbital (6.5 mg/100 g, i.p.) and livers were perfused according to Seglen (22). Isolated cells were seeded (1×10^5 cells/ml, 2 ml per well) in six-well culture plates and allowed to attach to the plate overnight at 37° C. The next day, unattached cells were washed out of the wells and the starting viable cell number was counted from three randomly selected wells. Trypsin-EDTA (Gibco, BRL) was used to isolate attached hepatocytes from the plate and the hepatocytes were counted using a hemocytometer (Fisher Scientific). Fresh medium and plasma samples from PHX rats (10% final concentration) were added to the rest of the wells (three wells per sample). The medium, containing plasma, was changed at 24 hours. The attached viable cells were harvested at 48 hours. and the final count of viable hepatocytes was determined. The PF levels were expressed as net cell proliferation (viable cell count per well at 48 hours minus starting cell count per well).
The experiment was aimed to develop and optimize a hepatocyte primary culture bioassay to detect proliferative factors (PF) in the plasma or serum of partial hepatectomized (PHX) rats, which could serve as an index of the initiation of liver regeneration cascade.
The bioassay detects the presence of PF by measuring hepatocyte proliferation through a directly counting cell number increases over the culture period using a hemacytometer. The procedure of liver perfusion and hepatocyte purification was adopted from Seglen (1976 Methods Cell Biol. 13, 29) using Sprague Dawley rats. The purified hepatocytes ([…]) were seeded into 6-well culture plates and allowed to attach to the plate overnight at 37° C. The unattached cells were then washed out and the starting cell count was determined from 3 randomly picked wells in the culture after trypsin digestion. Sera collected from ⅔ PHX rats at 1-6 hours post PHX was added to the culture. With a medium change at 24 hours, the final cell counting was performed at 48 hours. The net cell proliferation was expressed as the difference between the counts at 48 hours and starting at hour (0 hr).
The optimized assay conditions ([…] plating concentration, 10% serum, 48 hr culture) were able to detect an increase of PF in PHX rat serum between 1-4 hours after PHX, with a peak activity at 4 hours (unpooled serum n=5/time point, pooled n=5/point). The assay has a high sensitivity to detect PF in ⅓ PHX rat serum (n=7), which was not detectable using the conventional DNA synthesis method.
(§1) To test the hypotheses, an […] hepatocyte primary culture bioassay was developed to detect PF in the plasma of PHX rats as an index of the initial trigger. The PHX surgery was performed according to the conventional method. Liver weight was also measured from the post PHX recovered rats to directly assess liver regeneration in vivo. The level of flow-dependent factors (e.g. adenosine (Ado), NO) was pharmacologically manipulated to test their roles in triggering the liver regeneration cascade.

The test system of another data set is c-fos mRNA. Put plainly: Hepatic c-fos mRNA expression after 2/3 PHX (northern blot). It counts as in vivo, rat. On the procedure:
Animals were divided into four groups: sham procedures, PHX, PHX+L-NAME (Sigma), a Nos antagonist, and PHX+L-NAME+3morpholinosydnonimine (SIN-1, Alexis Corp.), a NO donor. Animals were anesthetized by sodium pentobarbital (6.5 mg/100 g. i.p; MTC Pharmaceuticals). Anesthesia was maintained using a continuous i.v. infusion (Harvard infusion pump, model 2720) of sodium pentobarbital (1.08 mg/ml saline, 1.0 ml/100 g/hr) via a cannula inserted into the femoral vein (PE50), Intramedic Clay Adams Brand, Becton-Dickinson). All surgical procedures were performed between the 10:00 am and 2:00 pm. Arterial blood pressure was monitored via a cannula (PE50, Intramedic Clay Adams Brand, Becton-Dickson) inserted into the femoral artery. To facilitate breathing a tracheotomy was performed using a polyethylene tube (PE240, Intramedic Clay Adams Brand, Becton-Dickinson) inserted into the trachea. Body temperature was maintained at 37.5±0.5° C. by the use of a rectal thermometer (Hanna Instruments) and a heated surgical table (Harvard Apparatus). Laparotomy was performed and a 24 G cather (Optiva™, Johnson and Johnson Medical Inc.) was inserted into the portal vein. The rat was then allowed to stabilize for 30 minutes.
A 0.5 ml bolus of L-NAME (5.0 mg/kg), or saline was infused intravenously over two minutes. Ten minutes later, PHX (resection of the left lateral and median lobes as described by Higgins and Anderson (20) or gentle manipulation of the liver lobes was performed. Resected lobes were litigated using black braided surgical silk (size 0, Ethicon) and excised. […] Fifteen minutes after PHX, or sham manipulation, the remaining liver was removed, slashed and blotted to remove blood, and immediately frozen on dry ice. Portal venous pressure (PVP) was measured, using an R-611 SensorMedics Dynograph Recorder, immediately before and after PHX.
For additional experiments involving PHX+L-NAME, the surgical procedure was exactly the same at that for the ⅔ PHX described above, except that the remaining liver as removed at 30, 45 or 60 minutes after PHX.
Total RNA was isolated by a method modified from Chirgwin et al. (23). Liver tissue was homogenized (Brinkman, Polytron) in lithium chloride/urea (3M/6M; Sima). The homogenized was centrifuged at 25000 rpm (Brinkman L8-70M Ultracentrifuge) for 20 minutes at 4° C. […] The concentration of the RNA was then determined using a spectrophotometer (Ultrospec2000, Pharamacia Biotech). […] The membranes were prehybridized at 42° C. for 3 hours in prehybridization buffer consisting of 5×SSC, 7% SDS (Sigma), sheared denatured salmon sperm DNA (100 μg/ml, Gibco BRL) and 5×Denhardt's solution (Sigma). c-fos mRNA was detected using a 2.1 kb cDNA probe (kindly provided by Dr. C Steer, university of Minnesota, Minneapolis, Minn.). […]

Data set [2] relates to proliferative factor (PF) activity in blood after PVL. Put plainly: Hepatocyte bioassay for PF activity in blood after selective portal vein branch ligation (PVL). It counts as in vivo, rat. The text has this:
Rats were divided into four groups: sham PVL, PVL, PVL+L-NAME and PVL+L-NAME+SIN-1. Surgical procedures were the same as described for PHX except that liver lobes were not ligated and […]. Rather, the left branch of the portal vein was carefully isolated and […]. The left branch of the portal vein was carefully isolated from the surrounding hepatic artery, hepatic nerves, bile duct and lymphatics. A thread was slipped around the left branch of the portal vein and the animal was allowed to recover for one hour. Following the recovery period, saline or L-NAME was administered as described for the PHX group, and the PVL+L-NAME+SIN-1 group received SIN-1 as indicated above. […] PVP was measured immediately before and after PVL, as described for PHX surgery.
The production of proliferative factors (PFs) was determined as previously described (21) . […] The next day, unattached cells were washed out of the wells and the starting viable cell number was counted from three randomly selected wells. Trypsin-EDTA (Gibco, BRL) was used to isolate attached hepatocytes from the plate and the hepatocytes were counted using a hemocytometer (Fisher Scientific). […] The attached viable cells were harvested at 48 hours. and the final count of viable hepatocytes was determined. The PF levels were expressed as net cell proliferation (viable cell count per well at 48 hours minus starting cell count per well).

The test system of another data set is two-thirds PHX rats. Put plainly: Restoration of liver weight and survival after two-thirds PHX. The settings on record: for post surgery survival rate: 36-44 hours. It counts as in vivo, rat. On the procedure:
The extent of liver regeneration can be assessed from a number of parameters, the most direct being the restoration of liver weight following PHX. […] Unfortunately, the liver regeneration studies are made complex by the well known observation that NO synthase blockade can potentiate the toxic reaction to inflammatory conditions. […] This can have been a factor in these studies where 6 of 14 rats died in the high dose group between 36 and 44 hours. These animals had only 18±4.7% regeneration. The ability to inhibit regeneration is compatible with a triggering role for NO.
as §1

The subject of the next data set is cultured hepatocytes. Put plainly: Cultured hepatocytes exposed to L-NAME in vitro. The settings on record: L-NAME at concentrations estimated to occur in the in vivo experiments. The format is cell-based, rat. The text has this: To determine whether NO served as a trigger to initiate a further cascade of events or whether it served as a direct proliferating stimulus on hepatocytes, the cultured hepatocytes were exposed to concentrations of L-NAME estimated to occur in the in vivo experiments.

Entries after “also recorded” stand apart in the source; their conditions may differ.

As for `Nc1ncnc2c1ncn2[C@@H]1O[C@H](CO)[C@@H](O)[C@H]1O` [Ado, adenosine], the “effect on PF generation” value in data set [1] (2/3 PHX rats, adenosine level manipulated) was “no significant effects”.
Regarding `CCCOc1ccccc1-c1nc2nn[nH]c2c(=O)[nH]1` [Zaprinast], the “c-fos mRNA expression” value in the data set on c-fos mRNA (after ⅔ PHX, Zaprinast 10 and 30 mg/kg) is “potentiated”.
Take `COC(=O)[C@@H](N)CCCNC(=N)N[N+](=O)[O-]` [L-NAME, N-nitro-Larginine methyl ester]: the “appearance/generation of PF in the plasma” value in data set [1] (two-thirds PHX rats, L-NAME i.v. at early time points after PHX, 4 hours peak PF) is listed as “block 4 hours peak PF generation; also recorded: blocked the appearance of PF in the plasma; also recorded: inhibited”. The “dose giving maximum inhibition of PF appearance” value in data set [1] (two-thirds PHX rats, i.v., not further inhibited by 5.0 mg/kg) is reported as 2.5 mg/kg. Besides, the “c-fos mRNA expression at 30, 45 and 60 minutes compared to 15 minutes after PHX” value in the data set with c-fos mRNA (L-NAME 5.0 mg/kg i.v. prior to PHX) is on record as “no difference in c-fos mRNA expression”. Besides, the “PF activity in blood” value in data set [2] (four hours after, L-NAME) was “inhibited”. The “post surgery survival rate” value is “about 50%” in the data set with two-thirds PHX rats (L-NAME + PHX group (n=14), PHX control 100%) and 100% in the data set on two-thirds PHX rats (L-NAME-no-PHX control group (n=6)). In the data set on two-thirds PHX rats (48 hours post-PHX, low dose of L-NAME), the “restoration of liver weight (regeneration)” value is reported as “did not significantly inhibit regeneration”. In the data set with two-thirds PHX rats (high dose L-NAME group after PHX, between 36 and 44 hours), the rats that died is on record as 6 of 14. Further, in the data set on two-thirds PHX rats (high dose L-NAME group, rats that died between 36 and 44 hours), the “regeneration in animals that died” value came to 18±4.7%. For the same molecule, the “direct effect on hepatocyte proliferation in vitro” value with cultured hepatocytes is “positive proliferative stimulus”.
On to `N=c1c[n+](N2CCOCC2)[n-]o1` [SIN-1, 3-morpholinosydnonimine], for which the “reversal of L-NAME inhibition of PF activity” value in data set [1] (PHX, PF activity in blood four hours after) is listed as “reversed the inhibition”; in data set [2] (PF activity in blood four hours after) it was “reversed the inhibition”.
Regarding `CC(=O)NC(C(=O)O)C(C)(C)SN=O` (racemic) [SNAP, S-nitroso-N-acetyl-D,L-penacillamine], the “c-fos mRNA expression” value in the data set with c-fos mRNA (after PHX, SNAP 5 mg/kg) is “potentiates”; in the data set on c-fos mRNA (sham operated livers, SNAP 5 mg/kg), “no effect”.
As for `N=C(N)NCCC[C@H](N)C(=O)O` [L-arginine], the “reversal of L-NAME-induced blockade/inhibition” value in data set [1] is listed as “reversed the L-NAME inhibitory effect”; in data set [1] (listed as L-Arginine), “significantly reversed the inhibition by L-NAME”.
